≈ marks a conversion by molar mass, not a printed value.
Legend:
Bacillus subtilis = test system: T1, Bacillus subtilis; assay: microbe, parasite or virus in culture; set-up: antibacterial 96-well microtiter plate assay, visible growth, 37 °C; conditions: 12 h
T1 construct: ATCC 6633
Source text: (§1) Four bacteria (Staphylococcus aureus ATCC6538, Bacillus subtilis ATCC 6633, Escherichia coli ATCC 25922, and Listeria monocytogenes ATCC 1911) were used for antibacterial evaluation for all compounds, referring to the previous method with ampicillin as a positive control. […] Five phytopathogens (Fusarium oxysporum f. sp. cubense, Fusarium spp., Peronophythora litchii, Colletotrichum gloeosporioides, and Hylocereus undatus) were used for antifungal evaluation for all compounds, referring to the previous broth microdilution method with carbendazim as a positive control. […] Each test was performed in triplicate. The inhibitory activity of all compounds against four bacteria (Staphylococcus aureus ATCC6538, Bacillus subtilis ATCC 6633, Escherichia coli ATCC 25922, and Listeria monocytogenes ATCC 1911) was evaluated using the 96-well microtiter plates method.

Staphylococcus aureus = test system: T2, Staphylococcus aureus; assay: microbe, parasite or virus in culture; set-up: antibacterial 96-well microtiter plate assay, visible growth, 37 °C; conditions: 12 h
T2 construct: ATCC 6538
Source text: as §1

Escherichia coli = test system: T3, Escherichia coli; assay: microbe, parasite or virus in culture; set-up: antibacterial 96-well microtiter plate assay, visible growth, 37 °C; conditions: 12 h
T3 construct: ATCC 25922
Source text: as §1

Listeria monocytogenes = test system: T4, Listeria monocytogenes; assay: microbe, parasite or virus in culture; set-up: antibacterial 96-well microtiter plate assay, visible growth, 37 °C; conditions: 12 h
T4 construct: ATCC 1911
Source text: as §1

Fusarium spp. = assay: microbe, parasite or virus in culture; conditions: 48 h, read-out: Fusarium spp. MIC
Procedure: (§2) Four bacteria (Staphylococcus aureus ATCC6538, Bacillus subtilis ATCC 6633, Escherichia coli ATCC 25922, and Listeria monocytogenes ATCC 1911) were used for antibacterial evaluation for all compounds, referring to the previous method with ampicillin as a positive control. The bacteria inhibitory activity of all compounds was observed after 12 h in a constant temperature incubator at 37 °C. Five phytopathogens (Fusarium oxysporum f. sp. cubense, Fusarium spp., Peronophythora litchii, Colletotrichum gloeosporioides, and Hylocereus undatus) were used for antifungal evaluation for all compounds, referring to the previous broth microdilution method with carbendazim as a positive control. The fungal inhibitory activity of all compounds was observed after 48 h in a constant temperature incubator at 28 °C. […] Each test was performed in triplicate.

[1] = test system: Colletotrichum gloeosporioides; assay: microbe, parasite or virus in culture; set-up: antifungal broth microdilution, visible growth, 28 °C; conditions: 48 h
Procedure: as §2, with “triplicate. The inhibitory activities of all compounds against five phytopathogenic fungi (Fusarium oxysporum f. sp. cubense, Fusarium spp., Peronophythora litchii, Colletotrichum gloeosporioides, and Hylocereus undatus) were evaluated using the broth microdilution method.” for “triplicate.”

[2] = test system: Fusarium oxysporum f. sp. cubense; assay: microbe, parasite or virus in culture; set-up: antifungal broth microdilution, visible growth, 28 °C; conditions: 48 h
Procedure: as §2, with “triplicate. The inhibitory activities of all compounds against five phytopathogenic fungi (Fusarium oxysporum f. sp. cubense, Fusarium spp., Peronophythora litchii, Colletotrichum gloeosporioides, and Hylocereus undatus) were evaluated using the broth microdilution method.” for “triplicate.”

Peronophythora litchii = assay: microbe, parasite or virus in culture; set-up: antifungal broth microdilution, visible growth, 28 °C; conditions: Phytophthora litchii, 48 h
Procedure: as §2, with “triplicate. The inhibitory activities of all compounds against five phytopathogenic fungi (Fusarium oxysporum f. sp. cubense, Fusarium spp., Peronophythora litchii, Colletotrichum gloeosporioides, and Hylocereus undatus) were evaluated using the broth microdilution method.” for “triplicate.”

α-glucosidase = α-glucosidase inhibition assay with p-NPG as substrate; assay type: biochemical

Structure (SMILES) | MIC (Bacillus subtilis) [µg/mL] | MIC (Staphylococcus aureus) [µg/mL] | MIC (Escherichia coli) [µg/mL] | MIC (Listeria monocytogenes) [µg/mL] | MIC (Fusarium spp.) [µg/mL] | MIC [1] [µg/mL] | MIC [2] [µg/mL] | MIC (Peronophythora litchii) [µg/mL] | IC50 (α-glucosidase) [µM]
CC1(C)S[C@@H]2[C@H](NC(=O)[C@H](N)c3ccccc3)C(=O)N2[C@H]1C(=O)O [Ampicillin] | < 1 | < 1 | < 1 | < 1 | – | – | – | – | –
COC(=O)Nc1nc2ccccc2[nH]1 [Carbendazim] | – | – | – | – | < 1 | < 1 | < 1 | < 1 | –
COC(=O)C1C(=O)C(C)=C2OC3(CC2(C)C1C)C(C)C(O)CC1C(C)(C)OC(=O)CCC13C (stereo not shown) [compound 1, asnovolin H] | > 128 | > 128 | > 128 | > 128 | > 128 | > 128 | > 128 | > 128 | –
CC1=C2O[C@@]3(C[C@]2(C)C(C)=C(C(=O)O)C1=O)[C@@H](C)CC[C@H]1C(C)(C)OC(=O)CC[C@@]13C [compound 2, asnovolin I] | > 128 | > 128 | > 128 | > 128 | > 128 | > 128 | > 128 | > 128 | –
COC(=O)C1=C(C)C2(C)CC3(OC2=C(C)C1=O)C(C)CCC1C(C)(C)OC(=O)CCC13C (stereo not shown) [compound 3, asnovolin C 5′6′-dehydro hydrogen] | > 128 | > 128 | > 128 | > 128 | > 128 | > 128 | > 128 | > 128 | –
COC(=O)CC[C@@]1(C)[C@H](C(C)(C)O)CC[C@H](C)[C@@]12C[C@@]1(C)C(=C(C)C(=O)[C@@H](C(=O)OC)[C@@H]1C)O2 [compound 4, asnovolin C] | > 128 | > 128 | > 128 | > 128 | > 128 | > 128 | > 128 | > 128 | –
CC1=CC(=O)C(C)=C2O[C@@]3(C[C@]12C)[C@@H](C)CC[C@H]1C(C)(C)[C@@H](O)CC[C@@]13C [compound 5, chermesin A] | > 128 | 128 (≈ 344 µM) | > 128 | > 128 | > 128 | > 128 | > 128 | > 128 | –
C[C@@H]1Cc2c3c(cc(O)c2C(=O)O1)O[C@@]1(C)[C@@H](O)C[C@H]2C(C)(C)C(=O)C=C[C@]2(C)[C@@H]1C3 [compound 6, chrodrimanin E] | > 128 | > 128 | > 128 | > 128 | > 128 | > 128 | > 128 | > 128 | –
C[C@@H]1Cc2c3c(cc(O)c2C(=O)O1)O[C@@]1(C)[C@@H](O)C[C@H]2C(C)(C)C(=O)CC[C@]2(C)[C@@H]1C3 [compound 7, chrodrimanin H] | > 128 | > 128 | > 128 | > 128 | > 128 | > 128 | > 128 | > 128 | –
CC(=O)O[C@@H]1c2c3c(cc(O)c2C(=O)O[C@@H]1C)O[C@]1(C)[C@H](C3)[C@@]2(C)CCC(=O)C(C)(C)[C@@H]2C[C@@H]1O [compound 8, thailandolide B] | > 128 | > 128 | > 128 | > 128 | > 128 | > 128 | > 128 | > 128 | –
CC(C)[C@@H](C)/C=C/[C@@H](C)[C@H]1CC[C@H]2C3=C(CC[C@]12C)[C@@]1(C)CCC(=O)C=C1C=C3 [compound 9, ergosta-4,6,8,22E-tetraene-3-one] | > 128 | > 128 | > 128 | > 128 | > 128 | > 128 | > 128 | > 128 | –
CC(C)[C@@H](C)/C=C/[C@@H](C)[C@H]1CC[C@@]2(O)C3=CC(=O)C4=CC(=O)CC[C@]4(C)[C@H]3CC[C@]12C [compound 10, 14α-hydroxyergosta-4,7,22E-triene-3,6-dione] | > 128 | > 128 | > 128 | > 128 | > 128 | > 128 | > 128 | > 128 | 111
CC(C)C(C)C=CC(C)C1CCC2C3CC(O)C4=CC(=O)CCC4(C)C3CCC12C (stereo not drawn) [compound 13, ergosta-6α-hydroxy-4,22E-dien-3-one] | > 128 | > 128 | > 128 | > 128 | > 128 | > 128 | > 128 | > 128 | –
CO[C@@H]1C[C@H]([C@H](C)/C=C/[C@H](C)C(C)C)[C@@]2(C)CC[C@H]3C(=C12)C=CC1=CC(=O)CC[C@@]13C [compound 16, 15β-methoxy-ergosta-4,6,8(14),22E-tetraene-3-one] | > 128 | > 128 | > 128 | > 128 | > 128 | > 128 | > 128 | > 128 | –
CC(C)[C@@H](C)/C=C/[C@@H](C)[C@H]1CC(=O)C2=C3C=CC4=CC(=O)CC[C@]4(C)[C@@]3(O)CC[C@@]21C [compound 17, ganodermaside C] | > 128 | > 128 | > 128 | > 128 | > 128 | > 128 | > 128 | > 128 | –
CC(C)[C@@H](C)/C=C/[C@@H](C)[C@H]1C[C@H](O)C2=C3C=CC4=CC(=O)CC[C@]4(C)C3CC[C@@]21C (stereo partly shown) [compound 18, ganodermaside A] | > 128 | > 128 | > 128 | > 128 | > 128 | > 128 | > 128 | > 128 | –

Source: paper PMC9784055, “Meroterpenoids and Steroids from the Marine-Derived Fungus Trametes sp. ZYX-Z-16” (Molecules, 2022)
